The values that follow come from patent publication US12318361B2, “Methods for treating cardiovascular diseases” (Olatec Therapeutics LLC, priority 2017, dated 2025).

The subject of assay [1] is dogs, occlusive coronary thrombus formation. Briefly: Thrombus formation in anesthetized dogs (anodal current to left circumflex coronary artery). The assay is classed as in vivo. Conditions: intravenous, about 30 min before anodal current; written in present tense. The method, then: To evaluate the effect of compound of Formula I or II on dynamic thrombus formation in vivo, the following experimental protocol, similar to the method of J. L. Romson et al. (Thromb. Res. 17:841-853, 1980), is performed.
Surgical Preparation and Instrumentation. Briefly, purpose-bred dogs are anesthetized, intubated and ventilated with room air. The heart is exposed by a left thoracotomy in the fifth intercostal space and suspended in a pericardial cradle. A 2-3 cm segment of the left circumflex coronary artery (LCCA) is isolated by blunt dissection. The artery is instrumented from proximal to distal with a flow probe, a stimulation electrode, and a Goldblatt clamp. The flow probe monitors the mean and phasic LCCA blood flow velocities. […]
Experimental Protocol: Dogs are randomized to one of four treatment protocols in which the control group receives saline intravenously and the three drug-treated groups are administered Rho kinase inhibitor compound intravenously. […] The number and frequency of cyclic flow variations (CFV) that precede formation of an occlusive thrombus are recorded. […]

Assay [2] has as its system IL-1β release from human monocytes-derived macrophages. The assay is described as follows: Suppression of IL-1β release from human monocytes-derived macrophages (LPS priming, nigericin release, ELISA). The class given is cell-based. The method, then: Peripheral blood mononuclear cells (PBMCs) were isolated from blood of 6 healthy human donors and differenciates in macrophages using GM-CSF (5 ng/ml) for 5 days. They were stimulated with 1 μg/mL with lipopolysaccharide (LPS, priming phase) at time zero. At 30 minutes, they were incubated with different concentrations of dapansutrile (OLT1177™) from 0.001-100 μM. At 4 hours, 10 μM of nigericin (NIG, release phase) was added. At the end of an 5 hour incubation period, the supernatant was harvested and assayed for IL-1β or IL-18 using respective ELISA kits following manafacturer's protocols.
For orientation: ELISA stands for enzyme-linked immunosorbent assay.

With `CS(=O)(=O)CCC#N` [OLT1177™, 3-methanesulfonyl-propionitrile], in assay [1], the “number and frequency of cyclic flow variations that precede formation of an occlusive thrombus” value is “significantly increases”. In addition, the “concentration of maximum suppression effect on IL-1β release” value in assay [2] (HMDM, 1 μg/mL LPS then 10 μM nigericin, 0.001-100 μM tested) is 1 µM. Besides, the “release of IL-1β from stimulated monocytes-derived macrophages” value in assay [2] (LPS/nigericin, compared to control) is “suppresses”.
